Laboratory results from patent US9315539B2 (YALE UNIVERSITY, priority 2002, dated 2016).
“Also recorded” adds a separate entry of the source.

How the values were obtained:
[1] = system: Ishikawa cell; assay: Agonist/antagonist character of the analogs (Tables 1 and 2); type: cell-based; details: estrogen agonism or antagonism, assay not named in the tables
Excerpt: From the estrogen competition assay, we expected that the methyl and ethyl esters, E11-2,1 and E11-2,2 would have relatively high activity in the estrogen potency assay, induction of alkaline phosphatase in Ishikawa cells. However, the results were quite unexpected (see FIG. 5, attached). […] We had never previously seen this disparity between estrogen receptor binding and biological activity. It occurred to us that we were observing the results that would obtained with a SERM and that E11-2,2 was in fact an antiestrogen. Consequently, we repeated the Ishikawa assay as an antiestrogenic assay (the assay is run in the presence of specified amounts of estradiol). […] We continued our synthesis of various analogs in order to define the chemical characteristics that lead to antiestrogenic effects. […] In this regard, several compounds are described with a 17α-ethynyl group in order to protect the C-17 hydroxyl from biological oxidation.

[2] = target: T1, estrogen receptor (Homo sapiens, UniProt P03372); assay: Estrogen receptor competition assay (relative binding affinity); details: estradiol (E2) = 100%
T1 sequence (P03372 1-595): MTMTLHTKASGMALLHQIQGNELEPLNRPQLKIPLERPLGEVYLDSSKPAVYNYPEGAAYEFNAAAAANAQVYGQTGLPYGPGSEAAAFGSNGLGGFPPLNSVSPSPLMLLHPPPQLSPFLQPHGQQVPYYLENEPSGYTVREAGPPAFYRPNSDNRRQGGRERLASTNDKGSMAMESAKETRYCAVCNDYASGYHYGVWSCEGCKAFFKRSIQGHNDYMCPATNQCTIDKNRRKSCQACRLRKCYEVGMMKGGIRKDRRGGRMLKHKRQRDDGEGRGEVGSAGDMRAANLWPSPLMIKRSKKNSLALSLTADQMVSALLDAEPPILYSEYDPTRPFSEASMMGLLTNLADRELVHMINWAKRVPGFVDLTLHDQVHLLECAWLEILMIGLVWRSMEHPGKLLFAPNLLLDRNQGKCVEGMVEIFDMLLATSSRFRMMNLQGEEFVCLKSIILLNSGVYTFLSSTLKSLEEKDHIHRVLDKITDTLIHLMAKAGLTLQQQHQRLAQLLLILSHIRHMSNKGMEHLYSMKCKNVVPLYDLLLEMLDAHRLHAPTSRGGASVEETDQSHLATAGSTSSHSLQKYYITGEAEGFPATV

[3] = system: Ishikawa cells; assay: Ishikawa estrogenic potency assay, induction of alkaline phosphatase; type: cell-based; details: for estrogenic activity (in words): induction of alkaline phosphatase in Ishikawa cells; for relative stimulatory activity (RSA): induction of alkaline phosphatase, estradiol set at 100%
Excerpt: (§1) Ishikawa Estrogenic Potency Assay From the estrogen competition assay, we expected that the methyl and ethyl esters, E11-2,1 and E11-2,2 would have relatively high activity in the estrogen potency assay, induction of alkaline phosphatase in Ishikawa cells. However, the results were quite unexpected (see FIG. 5, attached). […] We had never previously seen this disparity between estrogen receptor binding and biological activity. It occurred to us that we were observing the results that would obtained with a SERM and that E11-2,2 was in fact an antiestrogen. Consequently, we repeated the Ishikawa assay as an antiestrogenic assay (the assay is run in the presence of specified amounts of estradiol).

[4] = system: Ishikawa cell; assay: Antiestrogen Ishikawa cell assay (run in the presence of estradiol); type: cell-based; details: for antiestrogenic activity (in words): inhibition of estradiol-stimulated alkaline phosphatase
Excerpt: as §1, with “From” for “Ishikawa Estrogenic Potency Assay From”

[5] = system: uterotrophic action of estradiol; assay: In vivo uterotrophic assay, antiestrogenic action; design: species or system rat; details: immature female rats; for effect on uterotrophic action of estradiol: 20 ng estradiol
Protocol: In Vivo Uterotropic Activity
The analogs were administered concurrently in the same oil.

Row | SMILES | agonist / antagonist character [1] | other results
1 | CC(C)OCCCC1CC2(C)C(O)CCC2C2CCc3cc(O)ccc3C12 (centres unmarked) [E11-3,iPr ether] | strong antagonist | –
2 | COCCC1CC2(C)C(O)CCC2C2CCc3cc(O)ccc3C12 (centres unmarked) [E11-2,1ether] | agonist/slight antagonist | –
3 | CCOC(=O)C[C@H]1C[C@]2(C)[C@@H](O)CC[C@H]2[C@@H]2CCc3cc(O)ccc3[C@@H]12 [E11-2,2] | antiestrogen; also recorded: strong antagonist | relative binding affinity (RBA) [2]: 45%; estrogenic activity (in words) [3]: almost inactive; antiestrogenic activity (in words) [4]: inhibited the estrogenic stimulation of alkaline phosphatase in the Ishikawa cell, with very high potency; Ki ([4]; inhibition of estrogenic stimulation of alkaline phosphatase, several assays): 1 to 2 nM; effect on uterotrophic action of estradiol ([5]; 3 μg analog): partially active; effect on uterotrophic action of estradiol ([5]; 10 μg analog): completely abolished the effect of 20 ng estradiol; effect on uterotrophic action of estradiol (uterine weight) ([5]; 100 μg analog, 50 ng estradiol, FIG. 7): inhibiting the action of 50 ng of estradiol
4 | CCCC(=O)C[C@H]1C[C@]2(C)[C@@H](O)CC[C@H]2[C@@H]2CCc3cc(O)ccc3[C@@H]12 [E11-2K3] | antagonist | effect on uterotrophic response of estradiol ([5]; 30 μg analog): completely abolished the uterotrophic response of estradiol
5 | CC12CC(CCCOCCF)C3c4ccc(O)cc4CCC3C1CCC2O (centres unmarked) [E11-3,2F1 ether] | strong antagonist | –
6 | CC(C)(C)OCCCC1CC2(C)C(O)CCC2C2CCc3cc(O)ccc3C12 (centres unmarked) [E11-3,tBu ether] | extremely strong antagonists; also recorded: very strong antagonist | –
7 | CCOCCCC1CC2(C)C(O)CCC2C2CCc3cc(O)ccc3C12 (centres unmarked) [E11-3,2 ether] | strong antagonist | –
8 | COCCCC1CC2(C)C(O)CCC2C2CCc3cc(O)ccc3C12 (centres unmarked) [E11-3,1 ether] | antagonist | –
9 | CCCCOC(=O)C[C@H]1C[C@]2(C)[C@@H](O)CC[C@H]2[C@@H]2CCc3cc(O)ccc3[C@@H]12 [E11-2,4] | strong antagonist | –
10 | CC(C)OC(=O)C[C@H]1C[C@]2(C)[C@@H](O)CC[C@H]2[C@@H]2CCc3cc(O)ccc3[C@@H]12 [E11-2,3i] | strong antagonist | –
11 | CCOCCC1CC2(C)C(O)CCC2C2CCc3cc(O)ccc3C12 (centres unmarked) [E11-2,2ether] | strong antagonist | inhibition of the effect of estradiol ([5]; 30 μg analog): about 50%
12 | C[C@]12C[C@H](CCOC3CCCC3)[C@@H]3c4ccc(O)cc4CC[C@H]3[C@@H]1CC[C@@H]2O [E11-2,cyclo-Pent ether] | extremely strong antagonists; also recorded: very strong antagonist | –
13 | CC(=O)OC[C@H]1C[C@]2(C)[C@@H](O)CC[C@H]2[C@@H]2CCc3cc(O)ccc3[C@@H]12 [E11-1,2Rev] | agonist | –
14 | C[C@]12CC[C@@H]3c4ccc(O)cc4CC[C@H]3[C@@H]1CCC2=O [estrone, reference compound] | – | relative stimulatory activity (RSA) [3]: 4%
15 | CC(C)OCCC1CC2(C)C(O)CCC2C2CCc3cc(O)ccc3C12 (centres unmarked) [E11-2,iPr ether] | strong antagonist | –
16 | CCOCC1CC2(C)C(O)CCC2C2CCc3cc(O)ccc3C12 (centres unmarked) [E11-1,2ether] | agonist | –

Row | SMILES | agonist / antagonist character [1] | other results
17 | C#CC1(O)CCC2C3CCc4cc(O)ccc4C3C(CCCOC(C)C)CC21C (stereo not drawn) [17α-ethynyl-E11-3,iPr ether] | very strong antagonist | –
18 | CCCOC(=O)C[C@H]1C[C@]2(C)[C@@H](O)CC[C@H]2[C@@H]2CCc3cc(O)ccc3[C@@H]12 [E11-2,3] | strong antagonist | –
19 | CCCOCC1CC2(C)C(O)CCC2C2CCc3cc(O)ccc3C12 (centres unmarked) [E11-1,3ether] | strong antagonist | –
20 | CC(C)(C)COC(=O)C[C@H]1C[C@]2(C)[C@@H](O)CC[C@H]2[C@@H]2CCc3cc(O)ccc3[C@@H]12 [E11-2,5neo] | antagonist | –
21 | CCOC(=S)C[C@H]1C[C@]2(C)[C@@H](O)CC[C@H]2[C@@H]2CCc3cc(O)ccc3[C@@H]12 [E11-2S2] | antagonist | agonist / antagonist character ([1]; listed as E11-2S,2): strong antagonist
22 | CC(=O)OCC[C@H]1C[C@]2(C)[C@@H](O)CC[C@H]2[C@@H]2CCc3cc(O)ccc3[C@@H]12 [E11-2,2Rev] | agonist | –
23 | CC(=O)OCCC[C@H]1C[C@]2(C)[C@@H](O)CC[C@H]2[C@@H]2CCc3cc(O)ccc3[C@@H]12 [E11-3,2Rev] | antagonist | –
24 | CCC(=O)C[C@H]1C[C@]2(C)[C@@H](O)CC[C@H]2[C@@H]2CCc3cc(O)ccc3[C@@H]12 [E11-2K2] | weak agonist | –
25 | COC(=O)C[C@H]1C[C@]2(C)[C@@H](O)CC[C@H]2[C@@H]2CCc3cc(O)ccc3[C@@H]12 [E11-2,1] | estrogen | relative binding affinity (RBA) [2]: 24%; relative stimulatory activity (RSA) [3]: 16%; antiestrogenic activity (in words) [4]: neither E11-2,1 nor E11-2,0 showed any antiestrogenic activity
26 | CC(C)(C)C(=O)OCCC[C@H]1C[C@]2(C)[C@@H](O)CC[C@H]2[C@@H]2CCc3cc(O)ccc3[C@@H]12 [E11-3,piv Rev] | antagonist | –
27 | C#CC1(O)CCC2C3CCc4cc(O)ccc4C3C(CCCOC(C)(C)C)CC21C (stereo not drawn) [17α-ethynyl-E11-3,tBu ether] | very strong antagonist | –
28 | CC(C)(C)OCCC1CC2(C)C(O)CCC2C2CCc3cc(O)ccc3C12 (centres unmarked) [E11-2,tBu ether] | very weak antagonist | –
29 | COC(=O)CC[C@H]1C[C@]2(C)[C@@H](O)CC[C@H]2[C@@H]2CCc3cc(O)ccc3[C@@H]12 [E11-3,1] | antagonist | –
30 | CCCOCCC1CC2(C)C(O)CCC2C2CCc3cc(O)ccc3C12 (centres unmarked) [E11-2,3ether] | strong antagonist | –
31 | C[C@]12C[C@H](CC(=O)O)[C@@H]3c4ccc(O)cc4CC[C@H]3[C@@H]1CC[C@@H]2O [E11-2,0] | – | relative binding affinity (RBA) [2]: 0.3%; estrogenic activity (in words) [3]: more active than E11-2,2; antiestrogenic activity (in words) [4]: neither E11-2,1 nor E11-2,0 showed any antiestrogenic activity
32 | C[C@]12C[C@H](CCOC3CC3)[C@@H]3c4ccc(O)cc4CC[C@H]3[C@@H]1CC[C@@H]2O [E11-2,cyclo-Pr ether] | strong antagonist | –
